In ChEMBL document CHEMBL1149573, “Synthesis and reactivity of azobenzene-based bispropargyl sulfones: interesting comparison between cyclic and acyclic systems” (Bioorg Med Chem Lett, 2007):

Tested on: Escherichia coli
Test: Induction of pBR322 DNA cleavage after 2.5 hrs relative to (E)-1,2-bis(2-(4-(phenylsulfonyl)but-2-ynyloxy)phenyl)diazene

Activity: 15%
SMILES: O=S(=O)(CC#CCOc1ccc2ccccc2c1)c1ccccc1
